# Measurements reported in ChEMBL document CHEMBL1909046, “DrugMatrix in vitro pharmacology data”.
# How the values were obtained:
# [1] = target: Prostaglandin G/H synthase 1 (Homo sapiens, UniProt P23219); test: biochemical; type: tissue-based, Platelet;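 further: inhibition of COX-1 enzyme activity, with arachidonic acid supplied as substrate; in other assays of this panel Not Active means under 50% inhibition at 10 µM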
# Leukotriene C4 synthase = target: T1, Leukotriene C4 synthase (Cavia porcellus, UniProt A6XA80); test: biochemical; type: tissue-based, Lung;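 further: enzyme inhibition assay of leukotriene C4 synthase, using LTA4 as the substrate; in other assays of this panel Not Active means under 50% inhibition at 10 µM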
# T1 sequence (A6XA80 whole entry): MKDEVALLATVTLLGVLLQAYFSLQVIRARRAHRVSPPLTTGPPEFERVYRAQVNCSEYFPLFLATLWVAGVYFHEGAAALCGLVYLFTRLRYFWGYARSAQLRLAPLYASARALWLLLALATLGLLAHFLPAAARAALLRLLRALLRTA
# Cytochrome P450 2D6 = Cytochrome P450 2D6 (Homo sapiens, UniProt P10635); conditions: bti-tn-5b1-4; further: in other assays of this panel Not Active means under 50% inhibition at 10 µM
# [2] = DRUGMATRIX: Calcium Channel Type L, Benzothiazepine radioligand binding (ligand: [3H] Diltiazem); type: cell membranes, Rattus norvegicus, Wistar, Brain, Membrane; conditions: Not Active = under 50% inhibition at 10 µM
# B2 bradykinin receptor = target: T2, B2 bradykinin receptor (Homo sapiens, UniProt P30411); type: cell membranes, Membrane; conditions: chem-1; further: in other assays of this panel Not Active means under 50% inhibition at 10 µM
# T2 sequence (P30411 whole entry): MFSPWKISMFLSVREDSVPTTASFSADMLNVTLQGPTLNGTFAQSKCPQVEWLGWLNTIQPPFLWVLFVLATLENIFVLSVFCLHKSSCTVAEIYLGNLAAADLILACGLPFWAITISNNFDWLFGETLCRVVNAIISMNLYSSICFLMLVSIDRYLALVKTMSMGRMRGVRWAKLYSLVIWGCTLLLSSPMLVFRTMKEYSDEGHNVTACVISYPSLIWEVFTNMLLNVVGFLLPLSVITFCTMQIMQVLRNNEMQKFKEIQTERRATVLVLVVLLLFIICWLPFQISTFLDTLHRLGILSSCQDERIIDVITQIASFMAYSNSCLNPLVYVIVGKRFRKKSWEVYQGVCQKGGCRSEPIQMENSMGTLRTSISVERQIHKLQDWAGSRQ
# [3] = target: T3, 5-hydroxytryptamine receptor 2C (Homo sapiens, UniProt P28335); test: DRUGMATRIX: Serotonin (5-Hydroxytryptamine) 5-HT2C radioligand binding (ligand: [3H] Mesulergine); type: cell membranes, CHO-K1, Membrane; conditions: cho-k1; Not Active = under 50% inhibition at 10 µM
# T3 sequence (P28335 whole entry): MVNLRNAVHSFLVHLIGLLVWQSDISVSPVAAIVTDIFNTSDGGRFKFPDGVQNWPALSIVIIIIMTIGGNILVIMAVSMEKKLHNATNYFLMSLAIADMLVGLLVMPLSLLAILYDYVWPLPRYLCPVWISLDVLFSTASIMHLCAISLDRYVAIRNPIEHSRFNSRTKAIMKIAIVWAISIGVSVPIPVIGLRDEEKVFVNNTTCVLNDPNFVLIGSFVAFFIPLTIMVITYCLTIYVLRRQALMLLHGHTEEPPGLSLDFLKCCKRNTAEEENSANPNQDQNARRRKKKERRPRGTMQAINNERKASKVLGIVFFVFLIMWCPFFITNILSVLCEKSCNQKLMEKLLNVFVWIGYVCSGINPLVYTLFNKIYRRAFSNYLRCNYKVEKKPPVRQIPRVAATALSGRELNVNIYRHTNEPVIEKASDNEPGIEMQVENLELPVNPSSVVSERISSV
# Sequence of Cytochrome P450 2D6 (P10635 whole entry): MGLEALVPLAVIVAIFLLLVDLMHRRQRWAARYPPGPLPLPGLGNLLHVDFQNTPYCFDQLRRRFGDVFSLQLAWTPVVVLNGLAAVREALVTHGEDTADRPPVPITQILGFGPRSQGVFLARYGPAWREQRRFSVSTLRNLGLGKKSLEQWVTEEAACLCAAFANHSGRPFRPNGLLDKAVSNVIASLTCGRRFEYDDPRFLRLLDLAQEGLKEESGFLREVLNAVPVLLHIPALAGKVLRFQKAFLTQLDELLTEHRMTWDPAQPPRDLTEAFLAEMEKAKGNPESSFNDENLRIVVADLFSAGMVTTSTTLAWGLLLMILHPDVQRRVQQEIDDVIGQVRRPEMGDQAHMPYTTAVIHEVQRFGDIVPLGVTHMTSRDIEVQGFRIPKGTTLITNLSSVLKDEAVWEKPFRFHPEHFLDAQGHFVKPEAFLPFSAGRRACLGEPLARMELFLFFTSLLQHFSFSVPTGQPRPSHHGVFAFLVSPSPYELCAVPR
# Sequence of Prostaglandin G/H synthase 1 (P23219 whole entry): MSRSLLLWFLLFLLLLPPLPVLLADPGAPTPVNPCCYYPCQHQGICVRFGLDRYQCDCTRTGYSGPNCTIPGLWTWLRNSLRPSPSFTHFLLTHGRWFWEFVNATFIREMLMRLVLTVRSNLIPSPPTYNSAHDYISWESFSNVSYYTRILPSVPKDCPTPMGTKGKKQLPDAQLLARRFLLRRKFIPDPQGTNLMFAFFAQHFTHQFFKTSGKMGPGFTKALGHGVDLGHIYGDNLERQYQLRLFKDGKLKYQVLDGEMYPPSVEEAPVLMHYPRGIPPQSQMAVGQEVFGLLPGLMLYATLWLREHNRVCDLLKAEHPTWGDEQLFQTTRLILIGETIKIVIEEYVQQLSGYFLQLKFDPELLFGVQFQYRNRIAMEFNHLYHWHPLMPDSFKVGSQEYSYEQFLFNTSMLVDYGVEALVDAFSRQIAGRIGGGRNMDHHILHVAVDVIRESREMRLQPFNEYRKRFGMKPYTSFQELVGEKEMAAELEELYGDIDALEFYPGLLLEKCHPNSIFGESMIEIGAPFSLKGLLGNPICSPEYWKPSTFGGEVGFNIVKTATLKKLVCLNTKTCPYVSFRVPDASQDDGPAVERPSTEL
Compound,IC50 ([1]; read-out: IC50),IC50 (Leukotriene C4 synthase),IC50 (Cytochrome P450 2D6),Ki (Cytochrome P450 2D6),IC50 [2],Ki [2],IC50 (B2 bradykinin receptor),IC50 [3],IC50 ([1]; platelet),Ki ([1]; platelet),Ki (Leukotriene C4 synthase),Ki (B2 bradykinin receptor),Ki [3]
"O=C(Nc1ccc(Cl)c(Cl)c1)c1cc(Cl)cc(Cl)c1O [3,3',4',5-TETRACHLOROSALICYLANILIDE]",666 nM,Not Active,Not Active,Not Active,Not Active,Not Active,Not Active,Not Active,–,–,–,–,–
O=C(O)COC(=O)Cc1ccccc1Nc1c(Cl)cccc1Cl [ACECLOFENAC],–,Not Active,Not Active,Not Active,Not Active,Not Active,Not Active,Not Active,Not Active,–,–,–,–
O=c1[nH]c2ccccc2c2ccccc12,–,Not Active,Not Active,Not Active,Not Active,Not Active,Not Active,Not Active,Not Active,–,–,–,–
C=CCN1CC[C@]23c4c5ccc(O)c4O[C@H]2/C(=N/N=C2\CC[C@@]4(O)[C@H]6Cc7ccc(O)c8c7[C@@]4(CCN6CC=C)[C@H]2O8)CC[C@@]3(O)[C@H]1C5 [NALOXONAZINE],–,Not Active,Not Active,Not Active,Not Active,Not Active,Not Active,Not Active,Not Active,–,–,–,–
ClC1=C(Cl)[C@]2(Cl)[C@@H]3[C@@H]4C[C@@H]([C@H]5O[C@@H]45)[C@@H]3[C@@]1(Cl)C2(Cl)Cl [DIELDRIN],–,Not Active,Not Active,Not Active,Not Active,Not Active,Not Active,Not Active,Not Active,–,–,–,–
COPPER(II) OXIDE,–,Not Active,Not Active,Not Active,Not Active,Not Active,Not Active,Not Active,Not Active,Not Active,Not Active,Not Active,Not Active
CCO [ALCOHOL],–,Not Active,Not Active,Not Active,Not Active,Not Active,Not Active,Not Active,Not Active,–,–,–,–
c1ccc2sc(SSc3nc4ccccc4s3)nc2c1 [BENZOTHIAZYL DISULFIDE],–,Not Active,Not Active,Not Active,Not Active,Not Active,Not Active,Not Active,Not Active,–,–,–,–
Cl.NC[C@H]1CC[C@H](C(=O)Oc2ccc(CCC(=O)O)cc2)CC1 [CETRAXATE HYDROCHLORIDE],–,Not Active,Not Active,Not Active,Not Active,Not Active,Not Active,Not Active,Not Active,–,–,–,–
Nc1nc(N)c2nc(CNc3ccc(C(=O)N[C@@H](CCC(=O)O)C(=O)O)cc3)cnc2n1 [AMINOPTERIN],–,Not Active,Not Active,Not Active,Not Active,Not Active,Not Active,Not Active,Not Active,–,–,–,–
NC(=O)NC(=O)Cc1ccccc1 [PHENACEMIDE],–,Not Active,Not Active,Not Active,Not Active,Not Active,Not Active,Not Active,Not Active,–,–,–,–
C[N+](C)(C)CCOC(N)=O.[Cl-] [CARBACHOL],–,Not Active,Not Active,Not Active,Not Active,Not Active,Not Active,Not Active,Not Active,–,–,–,–
O=C1c2ccccc2C(=O)C1c1ccccc1 [PHENINDIONE],–,Not Active,Not Active,Not Active,Not Active,Not Active,Not Active,Not Active,Not Active,–,–,–,–
OC[C@H]1O[C@@H]2O[C@H]3[C@H](O)[C@@H](O)[C@@H](O[C@H]4[C@H](O)[C@@H](O)[C@@H](O[C@H]5[C@H](O)[C@@H](O)[C@@H](O[C@H]6[C@H](O)[C@@H](O)[C@@H](O[C@H]7[C@H](O)[C@@H](O)[C@@H](O[C@H]8[C@H](O)[C@@H](O)[C@@H](O[C@H]1[C@H](O)[C@H]2O)O[C@@H]8CO)O[C@@H]7CO)O[C@@H]6CO)O[C@@H]5CO)O[C@@H]4CO)O[C@@H]3CO [BETADEX],–,Not Active,Not Active,Not Active,Not Active,Not Active,Not Active,Not Active,Not Active,–,–,–,–
COc1ccc(Cl)cc1C(=O)NCCc1ccc(S(=O)(=O)NC(=O)NC2CCCCC2)cc1 [GLYBURIDE],–,Not Active,Not Active,Not Active,Not Active,Not Active,Not Active,Not Active,Not Active,–,–,–,–
CCN1CCN(C(=O)N[C@@H](C(=O)N[C@@H]2C(=O)N3[C@@H]2SC(C)(C)[C@@H]3C(=O)O)c2ccccc2)C(=O)C1=O [PIPERACILLIN],–,Not Active,Not Active,Not Active,Not Active,Not Active,Not Active,Not Active,Not Active,–,–,–,–
CNC[C@H](O)c1ccc(O)c(O)c1 [EPINEPHRINE],–,Not Active,Not Active,Not Active,Not Active,Not Active,Not Active,Not Active,Not Active,–,–,–,–
CCC1(c2ccccc2)C(=O)NC(=O)NC1=O [PHENOBARBITAL],–,Not Active,Not Active,Not Active,Not Active,Not Active,Not Active,Not Active,Not Active,–,–,–,–
CC1(COc2ccc(CC3SC(=O)NC3=O)cc2)CCCCC1 (stereo not drawn) [CIGLITAZONE],–,Not Active,Not Active,Not Active,Not Active,Not Active,Not Active,Not Active,Not Active,–,–,–,–
OC[C@H]1O[C@@H]2O[C@H]3[C@H](O)[C@@H](O)[C@@H](O[C@H]4[C@H](O)[C@@H](O)[C@@H](O[C@H]5[C@H](O)[C@@H](O)[C@@H](O[C@H]6[C@H](O)[C@@H](O)[C@@H](O[C@H]7[C@H](O)[C@@H](O)[C@@H](O[C@H]1[C@H](O)[C@H]2O)O[C@@H]7CO)O[C@@H]6CO)O[C@@H]5CO)O[C@@H]4CO)O[C@@H]3CO [ALFADEX],–,Not Active,Not Active,Not Active,Not Active,Not Active,Not Active,Not Active,Not Active,–,–,–,–
Nc1nc(F)nc2c1ncn2[C@@H]1O[C@H](CO)[C@@H](O)[C@@H]1O [FLUDARABINE],–,Not Active,Not Active,Not Active,Not Active,Not Active,Not Active,Not Active,Not Active,–,–,–,–
O=C(O)CO [GLYCOLIC ACID],–,Not Active,Not Active,Not Active,Not Active,Not Active,Not Active,Not Active,Not Active,–,–,–,–
O=C(NCCN1CCOCC1)c1ccc(Cl)cc1 [MOCLOBEMIDE],–,Not Active,Not Active,Not Active,Not Active,Not Active,Not Active,Not Active,Not Active,–,–,–,–
